Laboratory results as given in patent US20250057826A1, “WEEKLY REGIMEN FOR HIV” (Gilead Sciences, Inc., priority 2023, published 2025).

Assays:
[1] = pharmacokinetics following single-dose administration of oral LEN 50-1800 mg; assay type: in vivo; settings: single-dose oral LEN 50-1800 mg
[2] = 2-compartment LEN population pharmacokinetic (PopPK) model from pooled clinical PK data (IV/oral/SC LEN); assay type: in vivo, human; settings: column HTE
Description: PK data were pooled from several clinical studies in healthy participants and people with HIV-1 who received intravenous (IV)/oral/SC LEN and a 2-compartment LEN population pharmacokinetic (PopPK) model with first-order absorption and linear elimination was built to simulate various weekly dosing regimens (loading+maintenance doses) that can achieve efficacious LEN concentrations rapidly and be maintained through the dosing interval. Various scenarios including 1-3 weeks of missed oral dosing were simulated to evaluate the forgiveness window; these simulations were performed with the PopPK model incorporating variability and covariate effects. The model pharmacokinetic parameters for lenacapavir are provided in Table 1 where CL=clearance; Fpo=oral bioavailability; Fsc=SC bioavailability; GI=gastrointestinal; HTE=heavily treatment experienced; IIV=interindividual variability; Ka=absorption rate constant; Kdir=direct absorption rate constant; Ktr=transit absorption rate constant; PK=pharmacokinetic; Q=intercompartmental CL; Vc=volume of central compartment; Vp=volume of peripheral compartment.

[3] = tested on: MT-4 cells; assay: in vitro protein-adjusted 95% effective concentration derived from MT-4 cells (inhibitory quotient 4); assay type: cell-based; settings: 4-fold greater than in vitro protein-adjusted 95% effective concentration from MT-4 cells
[4] = tested on: HIV-1; assay: virologic suppression in Phase 2/3 clinical studies; assay type: in vivo, human; settings: at mean trough concentration of 15.5 ng/mL (IQ4)

With `CC(C)(C#Cc1ccc(-c2ccc(Cl)c3c(NS(C)(=O)=O)nn(CC(F)(F)F)c23)c([C@H](Cc2cc(F)cc(F)c2)NC(=O)Cn2nc(C(F)(F)F)c3c2C(F)(F)[C@@H]2C[C@H]32)n1)S(C)(=O)=O` [lenacapavir, N—((S)-1-(3-(4-chloro-3-(methylsulfonamido)-1-(2,2,2-trifluoroethyl)-1H-indazol-7-yl)-6-(3-methyl-3-(methylsulfonyl)but-1-yn-1-yl)pyridin-2-yl)-2-(3,5-difluorophenyl)ethyl)-2-((3bS,4aR)-5,5-difluoro-3-(trifluoromethyl)-3b,4,4a,5-tetrahydro-1H-cyclopropa[3,4]cyclopenta[1,2-c]pyrazol-1-yl)acetamide] the half-life ([1]; human, plasma) was 10 to 13 days, the “oral LEN exposure increase with dose” value [1] was “less than dose proportionally” and the “θ11: dose effect on Fpo” value ([2]; PopPK covariate effect) was −0.414. For the same compound, the “θ16: HV effect on Vp” value ([2]; PopPK covariate effect) was 1.35, the “θ19: pharmacoenhancer/booster effect on Fpo” value ([2]; PopPK covariate effect) was 0.534 and the “θ20: SC 150 mg/mL effect on Vp” value ([2]; PopPK covariate effect) was −0.795. The “θ21: SC 150 mg/mL effect on Ktr” value ([2]; PopPK covariate effect) was 0.433, the “θ10: Fsc relative to IV” value ([2]; PopPK model parameter, SC bioavailability) was 1.02 and the “θ6: SC Ktr” value ([2]; PopPK model parameter, SC) was 0.00202 h⁻¹. For the same compound, the “θ7: SC Kdir” value ([2]; PopPK model parameter, SC) was 1.06e-06 s⁻¹, the “θ8: SC fraction for direct absorption” value ([2]; PopPK model parameter, SC) was 0.421 and the “θ2: Vc” value ([2]; PopPK model parameter) was 67.9 L. For the same compound, the “θ4: Vp” value ([2]; PopPK model parameter) was 908 L, the “θ5: Q” value ([2]; PopPK model parameter) was 41.2 L/h and the “θ9: Fpo relative to IV” value ([2]; PopPK model parameter, oral bioavailability) was 0.0627. The “θ3: PO Ka” value ([2]; PopPK model parameter, oral) was 0.0286 h⁻¹, the “σ1: residual proportion variability” value ([2]; PopPK residual error) was 27.3% CV and the “σ2: residual additive” value ([2]; PopPK residual error) was 0.05 ng/mL. For the same compound, the “θ15: weight effect on Vc and Vp” value ([2]; fixed allometric exponent) was 1, the clearance ([2]; human, plasma, other: pooled intravenous, oral and subcutaneous, PopPK model parameter, read-out: θ1: CL (converted)) was 60.3 mL/min and the “ω11: IIV on CL” value ([2]; interindividual variability) was 43.2 % CV. The “ω22: IIV on Vc” value ([2]; interindividual variability) was 0% CV, the “ω33: IIV on Vp” value ([2]; interindividual variability) was 85.4 % CV and the “ω44: IIV on Ktr” value ([2]; interindividual variability) was 32.4 % CV. For the same compound, the “ω55: IIV on Ka” value ([2]; interindividual variability) was 78.4 % CV, the “ω66: IIV on Kdir” value ([2]; interindividual variability) was 0% CV and the “ω77: IIV on Fsc” value ([2]; interindividual variability) was 38.9% CV. For the same compound, the “inhibitory quotient 4 (IQ4) mean trough concentration” value [3] was 15.5 ng/mL and the virologic suppression [4] was “high rates of virologic suppression”.
